Data: patent US20040082664A1, “Derivatives of hydroxyphenyl, a method for preparing thereof and their pharmaceutical composition” (priority 2002, published 2004)

Legend:
[1] = molecular target: T1, GST-fused lck SH2 domain (Homo sapiens, UniProt P06239); assay: Inhibition of in vitro binding of lck SH2 domain to its cognate pYEEI peptide (BIAcore 2000); details: IC50 class for inhibition of GST-lckSH2 binding to immobilized biotinylated […]pYEEIPI peptide; read-out: BOND DEGREE WITH SH2 OF 1ck
T1 construct: GST (Glutathione transferase)-fused lck SH2 domain
Description: The present inventors investigated the inhibition activity of phenyl derivatives on the interaction of GST (Glutathione transferase)-fused lck SH2 domain and a peptide […]pYEEIPI (comprising the sequence PYEEI, a cognate peptide of Lck SH2) by using a real time sensorgram (BIAcore 2000).
At first, the biotinylated peptide was fixed on the surface of BIAcore analysis apparatus and then GST-lckSH2 protein was injected over the surface of the immobilized peptides. The binding of GST-lck SH2 with the peptide is represented as the resonance units (referred as “RU” hereinafter) and 1,000 RU corresponds to a change in surface concentration of 1 ng/mm^2. The binding of GST-lck with the fixed peptide causes the change of refractory index, leading to the increase of RU. In the mean time, when the binding of GST-lck with the fixed peptide is inhibited, RU decreases. Those results are represented in Table 1.

[2] = tested on: IL-2 promoter; assay: IL-2 promoter luciferase reporter assay in anti-CD3 activated Jurkat cells; type: cell-based; details: Homo sapiens, TCR-induced (anti-CD3) IL-2 promoter luciferase, 2 h pre-incubation
Description: In order to confirm whether the compounds of the invention can pass through a cell membrane and inhibit the expression of IL-2 gene leading to T-cell proliferation, the present inventors firstly confirmed T-cell activity by detecting the activity of the luciferase fused on the downstream of IL-2 promoter.
To investigate the activity of IL-2 promoter, Jurkat cells (1×10^6) were transfected with a IL-2 reporter plasmids using Superfect™ (Qiagen Inc.). After 24 hours of transfection, Jurkat cells were pre-incubated with compounds of various concentrations (1 uM-50 uM) for 2 hours and further cultured on 35mm plate pre-coated with 5 ug/ml of anti-CD3 antibody, resulting in T cell activation. The luciferase activity was measured using Berthold luminometer LB953. The IC50 (50% inhibition concentration) of the compounds of the invention on TCR-induced IL-2 promoter activation are shown in Table 2.

[3] = tested on: skin allograft rejection; assay: Inhibition of skin allograft rejection (Balb/c tail skin grafted onto C57BL/6 mouse); type: in vivo
Description: For the experiment, allogeneic Balb/c(H-2d) mouse-tail skin was grafted onto C57BL/6(H-2b) mouse. Generally 7-8 mice were assigned to each group. All the phenyl derivatives were dissolved in 100% ethanol, mixed with olive oil, and adjusted to the final concentration of ethanol therein less than 5%. […] Meanwhile, for the group of untreated mice, an olive oil-ethanol mixture was administered as a control. The grafted skin was monitored daily after the removal of the bandage on days 7-9. Rejection was defined as more than 80% necrosis of the graft epithelium.

[4] = tested on: collagen-induced rheumatoid arthritis; assay: Inhibition of collagen-induced rheumatoid arthritis in DBA1/LacJ mice; type: in vivo, mouse; set-up: key: sum of 4 leg scores (0-4 each), max 16; details: 50 mg/kg/day i.p. daily; day 15 after treatment (day 36 after primary immunization); sum of scores of four legs, maximum 16; mean ± standard deviation
Description: After 2 weeks, booster immunization was carried out with 50 μg C II/IFA. From the 3rd week after primary immunization, compounds of the present invention were injected daily into peritoneal cavities of 6-8 mice per group for 15-20 days.
The vehicle control groups were injected daily with 100 μl of 5% ethanol-olive oil mixture in total 15-20 times. Widely used anti-rheumatic drug, Methotrexate, was dissolved in PBS and then injected to mice at 1 mg/kg/day every other day in total 8-10 times. Meanwhile, the compounds of the invention were dissolved in ethanol and then mulsified in olive oil, in which the final ethanol concentration was adjusted to 5% and the compounds of this invention was 50 mg/kg/day.
From the 3rd week after primary immunization, the extent of edema and the joint swelling was monitored everyday to determine arthritic index. Arthitic index is the sum of the arthritic scores of all 4 legs and, therefore, maximum arthritis index of 16 can be achieved (e.g., [4 (maximum arthritic score)/leg]×[4 legs/mouse]=16 (maximum arthritis index/mouse)). […] was presented by the mean arthritis index±standard deviation of each mouse group.

[5] = 100 mg/kg/day into abdominal cavity from day of transplantation until complete rejection

T1 sequence (P06239 127-224 limits assumed): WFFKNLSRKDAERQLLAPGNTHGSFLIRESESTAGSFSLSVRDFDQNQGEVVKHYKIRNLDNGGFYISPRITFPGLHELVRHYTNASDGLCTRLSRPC

Structure (SMILES) | IC50 [1] | IC50 [2] | Survival time of skin graft tissue (days ± variance) [3, 5] | Arthritis index [4] | Survival time of skin graft tissue (days ± variance) ([3]; Example (1) 50 mg/kg/day)
NC(=O)[C@H](Cc1ccc(O)c(O)c1)NC(=O)/C=C/c1ccc(O)c(O)c1 [Example 14] | 10 to 25 µM | 6.9 µM | 15.3 ± 0.9 days | 5.3 ± 1.2 | 
NC(=O)[C@@H](Cc1ccc(O)c(O)c1)OC(=O)/C=C/c1ccc(O)c(O)c1 [Example 57, (R)-3-(3,4-Dihydroxy-phenyl)-acrylic acid 2-(3,4-dihydroxy-phenyl)-1-carbamoyl ethyl ester] | 25 to 50 µM | 5.2 µM | 13.1 ± 0.7 days | 4.5 ± 1.2 | 
COC(=O)C(Cc1ccc(O)c(O)c1)NC(=O)NCc1ccc(O)c(O)c1 (stereo not drawn) [Example 49, 2-[3-(3,4-dihydroxy-benzyl)-ureido]-3-(3,4-dihydroxy-phenyl)-propionic acid methyl ester] | 10 to 25 µM | 20.4 µM | 13 ± 1.5 days | 5.1 ± 0.9 | 
COC(=O)[C@@H](Cc1ccc(O)c(O)c1)NC(=O)/C=C/c1ccc(O)c(O)c1 [Example 1, 3-(3,4-dihydroxy-phenyl)-(R)-2-[3-trans-(3,4-dihydroxy-phenyl)-acryloylamino]-propionic acid methyl ester] | < 10 µM | 1.2 µM | 15.1 ± 1.5 days | 4.3 ± 1.5 | 11.2 ± 0.5 days
CCOC(=O)[C@H](Cc1ccc(O)c(O)c1)NC(=O)/C=C/c1ccc(O)c(O)c1 [Example 10, 3-(3,4-dihydroxy-phenyl)-(S)-2-[3-trans-(3,4-dihydroxy-phenyl)-acryloylamino]-propionic acid ethyl ester] | 10 to 25 µM | 4.4 µM | 15.3 ± 0.8 days | 5.8 ± 0.8 | 
COC(=O)[C@H](Cc1ccc(O)c(O)c1)N(C)C(=O)/C=C/c1ccc(O)c(O)c1 [Example 36, 3-(3,4-dihydroxy-phenyl)-(S)-2-{[3-trans-(3,4-dihydroxy-phenyl)-acryloyl]-methyl-amino}-propionic acid methyl ester] | 25 to 50 µM | 15 µM | 12.9 ± 0.9 days | 6.1 ± 1.9 | 
COC(=O)[C@@H](Cc1ccc(O)c(O)c1)NC(=O)CCc1ccc(O)c(O)c1 [Example 52, 3-(3,4-dihydroxy-phenyl)-2-[3-(3,4-dihydroxy-phenyl)-propionylamino]-propionic acid methyl ester] | 10 to 25 µM | 21 µM | 13.4 ± 1.2 days | 4.0 ± 0.7 | 
O=C(/C=C/c1ccc(O)c(O)c1)N[C@@H](Cc1ccc(O)c(O)c1)C(=O)O [Example 9, 3-(3,4-dihydroxy-phenyl)-(S)-2-[3-trans-(3,4-dihydroxy-phenyl)-acryloylamino]-propionic acid] | 25 to 50 µM | 18.2 µM | 14.8 ± 0.9 days | 7.2 ± 1.2 | 
NC(=O)[C@H](Cc1ccc(O)c(O)c1)NC(=S)/C=C/c1ccc(O)c(O)c1 [Example 28, 3-(3,4-dihydroxy-phenyl)-(S)-2-[3-trans-(3,4-dihydroxy-phenyl)-thioacryloylamino]-propioneamide] | 10 to 25 µM | 14.1 µM | 13.9 ± 0.9 days | 5.8 ± 0.6 | 
CCCOC(=O)[C@H](Cc1ccc(O)c(O)c1)NC(=S)/C=C/c1ccc(O)c(O)c1 [Example 25, 3-(3,4-dihydroxy-phenyl)-(S)-2-[3-trans-(3,4-dihydroxy-phenyl)-thioacryloylamino]-propionic acid propyl ester] | 10 to 25 µM | 9.7 µM | 14.8 ± 0.6 days | 5.7 ± 0.4 | 
CCCOC(=O)[C@H](Cc1ccc(O)c(O)c1)N(C)C(=O)/C=C/c1ccc(O)c(O)c1 [Example 39, 3-(3,4-dihydroxy-phenyl)-(S)-2-{[3-trans-(3,4-dihydroxy-phenyl)-acryloyl]-methyl-amino}-propionic acid propyl ester] | 10 to 25 µM | 9.7 µM | 14.1 ± 1.2 days | 5.7 ± 1.2 | 
CC(C)NC(=O)[C@@H](Cc1ccc(O)c(O)c1)OC(=O)/C=C/c1ccc(O)c(O)c1 [Example 58, (R)-3-(3,4-Dihydroxy-phenyl)-acrylic acid 2-(3,4-dihydroxy-phenyl)-1-isopropylcarbamoyl ethyl ester] | 25 to 50 µM | 5.4 µM | 12.5 ± 1.3 days | 4.8 ± 0.7 | 
CC(C)(C)OC(=O)[C@H](Cc1ccc(O)c(O)c1)NC(=O)/C=C/c1ccc(O)c(O)c1 [Example 13, 3-(3,4-dihydroxy-phenyl)-(S)-2-[3-trans-(3,4-dihydroxy-phenyl)-acryloylamino]-propionic acid tert-butyl ester] | 25 to 50 µM | 7.2 µM | 14.5 ± 0.6 days | 6.9 ± 1.1 | 
O=C(/C=C/c1ccc(O)c(O)c1)N[C@@H](Cc1ccc(O)cc1)C(=O)O [Example 48, (S)-2-[trans-3-(3,4-dihydroxy-phenyl)-acryloylamino]-3-(4-hydroxy-phenyl)-propionic acid] | 25 to 50 µM | 22.3 µM | 12 ± 1.6 days | 7.1 ± 0.4 | 
O=C(O)[C@H](Cc1ccc(O)c(O)c1)NC(=S)/C=C/c1ccc(O)c(O)c1 [Example 23, 3-(3,4-dihydroxy-phenyl)-(S)-2-[3-trans-(3,4-dihydroxy-phenyl)-thioacryloylamino]-propionic acid] | 25 to 50 µM | 16 µM | 13.2 ± 0.8 days | 6.7 ± 0.8 | 
O=C(/C=C/c1ccc(O)c(O)c1)N[C@H](Cc1ccc(O)cc1)C(=O)O [Example 46, (R)-2-[trans-3-(3,4-dihydroxy-phenyl)-acryloylamino]-3-(4-hydroxy-phenyl)-propionic acid] | 25 to 50 µM | 19 µM | 11.9 ± 0.9 days | 6.1 ± 0.7 | 
CC(C)(C)OC(=O)[C@@H](Cc1ccc(O)c(O)c1)OC(=O)/C=C/c1ccc(O)c(O)c1 [Example 56, (R)-3-(3,4-Dihydroxy-phenyl)-acrylic acid 2-(3,4-dihydroxy-phenyl)-1-tert-butoxycarbonyl ethyl ester] | 25 to 50 µM | 6.2 µM | 12.9 ± 1.2 days | 5.2 ± 0.5 | 
